Assay results published in patent publication US11274097B2, “2-(het)aryl-substituted condensed bicyclic heterocycle derivatives as pest control agents” (BAYER CROPSCIENCE AKTIENGESELLSCHAFT, priority 2014, dated 2022).
Read-outs that look alike come from different tables or passages of the source.

Tests used:
[1] = log P by HPLC on a reversed-phase column (C 18), EEC Directive 79/831 Annex V.A8; format: physicochemical; conditions: for LOGP_NEUTRAL: pH 7.8, 0.001 molar aqueous ammonium hydrogencarbonate/acetonitrile; for chromatographic logP: reversed-phase HPLC column (C 18)
Experimental: The log P values are measured according to EEC Directive 79/831 Annex V.A8 by HPLC (high-performance liquid chromatography) on a reversed-phase column (C 18). Temperature: 55° C. The LC-MS determination in the acidic range is effected at pH 2.7 using 0.1% aqueous formic acid and acetonitrile (contains 0.1% formic acid) as eluents, linear gradient from 10% acetonitrile to 95% acetonitrile. Called log P (HCOOH) in the table. LC-MS determination in the neutral range is effected at pH 7.8 with 0.001 molar aqueous ammonium hydrogencarbonate solution and acetonitrile as eluents; linear gradient from 10% acetonitrile to 95% acetonitrile. Called log P (neutral) in the table. Calibration is effected with unbranched alkan-2-ones (having 3 to 16 carbon atoms) with known log P values (log P values determined on the basis of the retention times by linear interpolation between two successive alkanone s).

[2] = system: Phaedon cochleariae; experiment: Phaedon cochleariae spray test (PHAECO); format: in vivo; conditions: application rate 500 g/ha; larvae; after 7 days
Experimental: Phaedon cochleariae—Spray Test (PHAECO)
Solvent: 78.0 parts by weight of acetone • • 1.5 parts by weight of dimethylformamide
Emulsifier: alkylaryl polyglycol ether
To produce an appropriate active ingredient formulation, 1 part by weight of active ingredient is dissolved using the stated parts by weight of solvent and made up with water containing an emulsifier concentration of 1000 ppm until the desired concentration is attained. To produce further test concentrations, the preparation is diluted with emulsifier-containing water.
Discs of Chinese cabbage leaves (Brassica pekinensis) are sprayed with an active ingredient formulation of the desired concentration and, after drying, populated with larvae of the mustard beetle (Phaedon cochleariae).
After 7 days, the efficacy in % is determined. 100% means that all the beetle larvae have been killed; 0% means that no beetle larvae have been killed.

[3] = acidic range, pH 2.7, 0.1% aqueous formic acid/acetonitrile, 55° C.
[4] = neutral range, pH 7.8, read-out: log P (neutral)

SMILES | LOGP_HCOOH [1, 3] | LOGP_NEUTRAL ([1]; neutral range, 55° C.) | chromatographic logP [1, 4] | chromatographic logP ([1]; acidic range, pH 2.7, 0.1% aqueous formic acid/acetonitrile, 55° C., read-out: LOGP_HCOOH) | efficacy [2] [%]
CC(C)Sc1cc(C(F)(F)F)cnc1-c1nc2cc(C(F)(F)F)ncc2n1C [Example I-41] | 3.80 | 3.73 | – | – | 100
CCSc1cc(C(N)=O)cnc1-c1nc2cc(C(F)(F)F)ncc2n1C [Example I-60] | 1.77 | 1.76 | – | – | –
CCSc1cc(C(F)(F)F)cnc1-c1nc2cc(-n3ccc(C(F)(F)F)n3)ncc2n1C [Example I-69] | 4.37 | 4.32 | – | – | –
CCSc1cc(C(F)(F)F)cnc1-c1nc2cc(-n3cc(C(F)(F)F)cn3)ncc2n1C [Example I-65] | 4.37 | 4.31 | – | – | –
Cn1c(-c2ncc(C(F)(F)F)cc2S(=O)(=O)CCO)nc2cc(C(F)(F)F)ncc21 [Example I-58] | – | 2.19 | – | – | –
CCS(=O)(=O)c1cc(C(F)(F)F)cnc1-c1nc2cc(-n3ccc(C(F)(F)F)n3)ncc2n1C [Example I-77] | 3.90 | 3.81 | – | – | –
CCS(=O)(=O)CCS(=O)(=O)c1cc(C(F)(F)F)cnc1-c1nc2cc(C(F)(F)F)ncc2n1C [Example I-7] | 2.72 | 2.67 | – | – | –
CCSc1cc(C(F)(F)F)cnc1-c1nc2cc(Cl)ncc2n1C [Example I-55] | 3.12 | 3.01 | – | – | 100
CCS(=O)(=O)c1cccnc1-c1nc2cc(C(F)(F)F)ncc2n1C [Example I-15] | 1.95 | 1.92 | – | – | –
Cn1c(-c2ccc(C(F)(F)F)cc2[S+](C)[O-])nc2cc(C(F)(F)F)ncc21 (stereo not shown) [Example I-30] | 2.41 | 2.36 | – | – | 83
CC(C)[S+]([O-])c1cc(C(F)(F)F)cnc1-c1nc2cc(C(F)(F)F)ncc2n1C (stereo not shown) [Example I-8] | 3.54 | 3.46 | – | – | –
Cn1c(-c2ccc(F)cc2S(C)(=O)=O)nc2cc(C(F)(F)F)ncc21 [Example I-20] | 2.08 | 2.05 | – | – | –
Cn1c(-c2ncc(C(F)(F)F)cc2S(=O)(=O)CCF)nc2cc(C(F)(F)F)ncc21 [Example I-57] | 2.89 | 2.82 | – | – | –
CCS(=O)(=O)c1cc(C#N)cnc1-c1nc2cc(C(F)(F)F)ncc2n1C [Example I-72] | 2.32 | 2.26 | – | – | –
CCS(=O)(=O)c1cc(C(F)(F)F)cnc1-c1nc2cc(-n3cc(C(F)(F)F)cn3)ncc2n1C [Example I-76] | 3.84 | 3.73 | – | – | –
CCSc1cc(C(F)(F)F)cnc1-c1nc2cc(-n3cnc(C(F)(F)F)c3)ncc2n1C [Example I-74, 2-[3-ethylsulphanyl-5-(trifluoromethyl)-2-pyridyl]-3-methyl-6-[4-(trifluoromethyl)-imidazol-1-yl]imidazo[4,5-c]pyridine] | – | 3.36 | 3.36 | 3.49 | –
CCCS(=O)(=O)c1cc(C(F)(F)F)cnc1-c1nc2cc(C(F)(F)F)ncc2n1C [Example I-32] | 3.37 | 3.32 | – | – | –
CSc1cc(C(F)(F)F)ccc1-c1nc2cc(C(F)(F)F)ncc2n1C [Example I-5] | 3.30 | 3.26 | – | – | 100
COc1ccc(S(C)(=O)=O)c(-c2nc3cc(C(F)(F)F)ncc3n2C)n1 [Example I-73] | 2.25 | 2.20 | – | – | 100
CC(C)S(=O)(=O)c1cc(C(F)(F)F)cnc1-c1nc2cc(C(F)(F)F)ncc2n1C [Example I-16] | 3.26 | 3.21 | – | – | –
CCS(=O)(=O)c1c(Cl)cccc1-c1nc2cc(C(F)(F)F)ncc2n1C [Example I-62] | 2.17 | 2.15 | – | – | –
CCCSc1ccc(OC)nc1-c1nc2cc(C(F)(F)F)ncc2n1C [Example I-66] | 3.50 | 3.42 | – | – | –
CSc1cc(Cl)ccc1-c1nc2cc(C(F)(F)F)ncc2n1C [Example I-25] | 3.08 | 2.97 | – | – | 100
CSc1cc(Cl)ccc1-c1nc2cc(C(F)(F)F)ncc2o1 [Example I-34] | 4.38 | 4.41 | – | – | –
CCSc1ccccc1-c1nc2nc(C(F)(F)F)ncc2o1 [Example I-9] | 3.66 | 3.64 | – | – | –
Cn1c(-c2ncc(C(F)(F)F)cc2SCCO)nc2cc(C(F)(F)F)ncc21 [Example I-59] | 2.41 | 2.31 | – | – | –
Cn1c(-c2ncc(C(F)(F)F)cc2Cl)nc2cc(C(F)(F)F)ncc21 [IX-01, 2-[3-chloro-5-(trifluoromethyl)pyridin-2-yl]-3-methyl-6-(trifluoromethyl)-3H-imidazo[4,5-c]pyridine] | – | – | 2.96 | – | –
CCSc1ccccc1-c1nc2cc(C(F)(F)F)ncc2o1 [Example I-35, 2-[2-(Ethylsulphanyl)phenyl]-6-(trifluoromethyl)[1,3]oxazolo[5,4-c]pyridine] | 4.03 | 4.07 | 4.07 | – | –

Continued, in another order:

LOGP_HCOOH [1, 3] | LOGP_NEUTRAL ([1]; neutral range, 55° C.) | chromatographic logP [1, 4] | chromatographic logP ([1]; acidic range, pH 2.7, 0.1% aqueous formic acid/acetonitrile, 55° C., read-out: LOGP_HCOOH) | SMILES | efficacy [2] [%]
3.94 | 3.86 | – | – | CCCSc1cc(C(F)(F)F)cnc1-c1nc2cc(C(F)(F)F)ncc2n1C [Example I-31] | 100
2.75 | 2.74 | – | – | CSc1cc(Cl)ccc1-c1nc2nc(C(F)(F)F)ncc2n1C [Example I-6] | –
3.04 | 2.93 | – | – | Cn1c(-c2ncccc2SC(F)(F)F)nc2cc(C(F)(F)F)ncc21 [Example I-29] | 100
3.93 | 3.95 | 3.95 | – | CCSc1cc(C(F)(F)F)cnc1-c1nc2cc(-c3ccc(C(F)(F)F)cc3)ncc2n1C [Example I-64, 2-[3-ethylsulphanyl-5-(trifluoromethyl)-2-pyridyl]-3-methyl-6-[4-(trifluoromethyl)-phenyl]imidazo[4,5-c]pyridine] | –
2.93 | – | – | – | CCCS(=O)(=O)c1ccc(OC)nc1-c1nc2cc(C(F)(F)F)ncc2n1C [Example I-71] | –
3.15 | 3.10 | – | – | FC(F)(F)c1cc2nc(-c3ccccc3SC3COC3)oc2cn1 [Example I-40] | –
– | – | 1.59 | – | CCSc1ccccc1C(=O)Nc1cc(C(F)(F)F)ncc1O [VIII-02, 2-(ethylsulphanyl)-N-[5-hydroxy-2-(trifluoromethyl)pyridin-4-yl]benzamide] | –
3.86 | 3.77 | – | – | CSc1cc(Cl)ccc1-c1nc2nc(C(F)(F)F)ncc2o1 [Example I-1] | –
2.12 | 2.11 | – | – | CC[S+]([O-])c1cccnc1-c1nc2cc(C(F)(F)F)ncc2n1C (stereo not shown) [Example I-33] | –
2.94 | 2.84 | – | – | CCS(=O)(=O)c1cc(C(F)(F)F)cnc1-c1nc2cc(-n3cnc(C(F)(F)F)c3)ncc2n1C [Example I-75] | –
2.75 | 2.70 | – | – | COc1ccc(SC)c(-c2nc3cc(C(F)(F)F)ncc3n2C)n1 [Example I-67] | –
1.87 | 1.84 | – | – | Cn1c(-c2ccccc2S(=O)(=O)C2COC2)nc2cc(C(F)(F)F)ncc21 [Example I-27] | –
– | – | 3.09 | – | CNc1cnc(C(F)(F)F)cc1NC(=O)c1ncc(C(F)(F)F)cc1Cl [VIII-01, 3-chloro-N-[5-(methylamino)-2-(trifluoromethyl)pyridin-4-yl]-5-(trifluoromethyl)pyridine-2-carboxamide] | –
